This passage reports IC50 results from patent US8735384B2, “Amino heteroaryl compounds as beta-secretase modulators and methods of use” (Amgen Inc., priority 2010, dated 2014).

Experiment [1] concerns Aβ40 in conditioned medium of cells stably expressing Amyloid Precursor Protein (APP). The experiment in a line: In vitro BACE cell-based assay (HEK cell assay), Aβ40 sandwich ELISA. To be noted: Homo sapiens, HEK293, 24 h, inhibition of Aβ40, 24 h incubation, read-out: HEK cell assay (IC50 class). Put shortly: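 Aβ40 in conditioned medium measured after 24 h compound exposure (10-point series, 100 μM or 10 μM start, 0.1% DMSO) of cells stably expressing APP, seeded 40K/well. Detection: pAb40/6E10-biotin sandwich ELISA at 4°C with time-resolved europium read-out; IC50 derived from percent of control.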

A further experiment deals with BACE1 (Homo sapiens, UniProt P56817). The experiment in a line: In vitro enzymatic BACE FRET assay. Format: biochemical. To be noted: beta secretase enzyme 0.2 nM, FRET substrate 50 nM, pH 4.2; read-out: BACE1 FRET assay (IC50 class). Put shortly: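 Enzyme activity was measured as release of quenching from a 50 nM fluorophore/quencher peptide spanning the cleavage site, over 1 h. This followed 1 h pre-incubation of 0.2 nM enzyme with compound dilutions at pH 4.2 (acetate, 10% DMSO, genapol). Tris addition ended the reaction before fluorescence was measured.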
Sequence of BACE1 (P56817 46-501, species assumed): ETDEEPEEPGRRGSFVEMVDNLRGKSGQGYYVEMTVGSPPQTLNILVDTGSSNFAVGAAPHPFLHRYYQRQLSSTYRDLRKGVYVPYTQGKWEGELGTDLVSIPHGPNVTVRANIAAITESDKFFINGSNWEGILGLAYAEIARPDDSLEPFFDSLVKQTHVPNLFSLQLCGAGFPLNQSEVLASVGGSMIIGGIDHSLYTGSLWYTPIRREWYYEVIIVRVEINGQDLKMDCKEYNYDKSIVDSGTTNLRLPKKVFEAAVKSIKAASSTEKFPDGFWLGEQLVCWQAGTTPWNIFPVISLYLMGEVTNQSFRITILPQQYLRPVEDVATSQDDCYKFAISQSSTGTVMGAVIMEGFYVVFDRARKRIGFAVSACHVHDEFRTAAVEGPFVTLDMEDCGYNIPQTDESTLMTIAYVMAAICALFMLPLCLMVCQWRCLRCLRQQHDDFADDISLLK

A value given as a limit tells only on which side of the number the result lay.

Regarding `Cc1cccc(COc2cc(C(F)(F)F)ccc2Cl)c1-c1ccc2nc(N)c(N3CCOCC3)cc2c1` [Example 208, 6-(2-((2-chloro-5-(trifluoromethyl)phenoxy)methyl)-6-methylphenyl)-3-morpholinoquinolin-2-amine], the IC50 in experiment [1] was 100 to 500 nM; on BACE1, below 100 nM.

Turning to `CC(C)(C)CCc1cccc(C(=O)N2CCC2)c1-c1ccc2nc(N)c(N3CCOCC3)cc2c1` [Example 164, (2-(2-amino-3-morpholinoquinolin-6-yl)-3-(3,3-dimethylbutyl)phenyl)(azetidin-1-yl)methanone], the IC50 (in experiment [1]; on BACE1) was below 100 nM throughout.

Regarding `Cc1cccc(C(=O)c2ccccn2)c1-c1ccc2nc(N)c(N3CCOCC3)cc2c1` [Example 157, (2-(2-amino-3-morpholinoquinolin-6-yl)-3-methylphenyl)(pyridin-2-yl)methanone], the IC50 in experiment [1] was 501 to 1000 nM; at BACE1, below 100 nM.

Turning to `Cc1cccc(C(=O)N2CCCC2)c1-c1ccc2nc(N)c(N3C[C@@H]4C[C@H]3CO4)cc2c1` [Example 56, (2-(2-amino-3-((1S,4S)-2-oxa-5-azabicyclo[2.2.1]heptan-5-yl)quinolin-6-yl)-3-methylphenyl)(pyrrolidin-1-yl)methanone], the IC50 (in experiment [1]; on BACE1) was below 100 nM in each case.

Take `Cc1cccc(C(=O)CC(C)C)c1-c1ccc2nc(N)c(N3CCOCC3)cc2c1` [Example 182, 1-(2-(2-amino-3-morpholinoquinolin-6-yl)-3-methylphenyl)-3-methylbutan-1-one]: the half-maximal inhibitory concentration (IC50) was 501 to 1000 nM in experiment [1] and below 100 nM on BACE1.

Consider `Cc1cccc(C(=O)C2CCCO2)c1-c1ccc2nc(N)c(N3CCOCC3)cc2c1` (centres unmarked) [Example 5, (2-(2-amino-3-morpholinoquinolin-6-yl)-3-methylphenyl)(tetrahydrofuran-2-yl)methanone], for which the 50% inhibitory concentration (IC50) was 501 to 1000 nM in experiment [1] and 100 to 500 nM on BACE1.

With `CCCCN(C)C(=O)c1cccc(C)c1-c1ccc2nc(N)c(N3CCOCC3)cc2c1` [Example 117, 2-(2-amino-3-morpholinoquinolin-6-yl)-N-butyl-N,3-dimethylbenzamide], the IC50 in experiment [1] was 1010 to 5000 nM; at BACE1, below 100 nM.

For the compound `COC1CCN(C(=O)c2cccc(C)c2-c2ccc3nc(N)c(N4CCOCC4)cc3c2)CC1` [Example 72, (2-(2-amino-3-morpholinoquinolin-6-yl)-3-methylphenyl)(4-methoxypiperidin-1-yl)methanone], the 50% inhibitory concentration (IC50) is 1010 to 5000 nM in experiment [1] and below 100 nM on BACE1.

With `Cc1cccc(C(=O)N2CCCC2)c1-c1ccc2nc(N)c(N3CCOC(C)(C)C3)cc2c1` [Example 215, (2-(2-amino-3-(2,2-dimethylmorpholino)quinolin-6-yl)-3-methylphenyl)(pyrrolidin-1-yl)methanone], the half-maximal inhibitory concentration (IC50) in experiment [1] was 501 to 1000 nM; on BACE1, below 100 nM.

For `Cc1ccccc1C(N)c1cccc(C)c1-c1ccc2nc(N)c(N3CCOCC3)cc2c1` (centres unmarked) [Example 193, 6-(2-(amino(o-tolyl)methyl)-6-methylphenyl)-3-morpholinoquinolin-2-amine], the IC50 (in experiment [1]; at BACE1) was below 100 nM throughout.

Consider `Nc1nc2cc(F)c(-c3ccccc3C(=O)N3CCCC3)cc2cc1N1CCOCC1` [Example 140, (2-(2-amino-7-fluoro-3-morpholinoquinolin-6-yl)phenyl)(pyrrolidin-1-yl)methanone], for which the figures for the concentration for half-maximal inhibition (IC50) (in experiment [1]; on BACE1) were 1010 to 5000 nM and 100 to 500 nM, respectively.

Consider `CCCN(C)C(=O)c1cccc(C)c1-c1ccc2nc(N)c(N3CCOCC3)cc2c1` [Example 110, 2-(2-amino-3-morpholinoquinolin-6-yl)-N,3-dimethyl-N-propylbenzamide], for which the IC50 in experiment [1] was in the range of 1010 to 5000 nM; at BACE1 it was 100 to 500 nM.

As to `Nc1nc2ccc(-c3ccccc3C(O)C3CCOCC3)cc2cc1N1CCOCC1` (centres unmarked) [Example 12, (2-(2-amino-3-morpholinoquinolin-6-yl)phenyl)(tetrahydro-2H-pyran-4-yl)methanol], the IC50 in experiment [1] is above 5000 nM; on BACE1 it was 1010 to 5000 nM.

On to `Cc1cccc(C(=O)N2C(C)CCCC2C)c1-c1ccc2nc(N)c(N3CCOCC3)cc2c1` (centres unmarked) [Example 124, (2-(2-amino-3-morpholinoquinolin-6-yl)-3-methylphenyl)(2,6-dimethylpiperidin-1-yl)methanone], for which the IC50 in experiment [1] is 1010 to 5000 nM; on BACE1, below 100 nM.

Take `Cc1cccc(C(=O)N2CCCC2)c1-c1ccc2nc(N)c(N3CCOC[C@H]3C)cc2c1` [Example 20, (R)-(2-(2-amino-3-(3-methylmorpholino)quinolin-6-yl)-3-methylphenyl)(pyrrolidin-1-yl)methanone]: the values for the IC50 (in experiment [1]; at BACE1) were 501 to 1000 nM and below 100 nM, respectively.

Turning to `CC(C)(C)COc1ccccc1-c1ccc2nc(N)c(N3CCOCC3)cc2c1` [Example 51, 3-morpholino-6-(2-(neopentyloxy)phenyl)quinolin-2-amine], the results for the IC50 (in experiment [1]; at BACE1) were above 5000 nM and 501 to 1000 nM, respectively.

For `Nc1nc2ccc(-c3ccccc3C(=O)OC3CCCC3)cc2cc1N1CCOCC1` [Example 145, cyclopentyl 2-(2-amino-3-morpholinoquinolin-6-yl)benzoate], the IC50 in experiment [1] was 501 to 1000 nM; at BACE1, below 100 nM.

Turning to `Cc1cccc(C(=O)N2CC(C)CC(C)C2)c1-c1ccc2nc(N)c(N3CCOCC3)cc2c1` (centres unmarked) [Example 88, (2-(2-amino-3-morpholinoquinolin-6-yl)-3-methylphenyl)(3,5-dimethylpiperidin-1-yl)methanone], the IC50 in experiment [1] was 1010 to 5000 nM; on BACE1, 100 to 500 nM.

Take `Cc1cccc(C(O)c2cnccn2)c1-c1ccc2nc(N)c(N3CCOCC3)cc2c1` (centres unmarked) [Example 36, (2-(2-amino-3-morpholinoquinolin-6-yl)-3-methylphenyl)(pyrazin-2-yl)methanol]: the IC50 (in experiment [1]; on BACE1) was 1010 to 5000 nM in each case.

In the case of `Cc1cccc(C(=O)N(C)c2ccc(F)cc2)c1-c1ccc2nc(N)c(N3CCOCC3)cc2c1` [Example 138, 2-(2-amino-3-morpholinoquinolin-6-yl)-N-(4-fluorophenyl)-N,3-dimethylbenzamide], the IC50 in experiment [1] lay within 1010 to 5000 nM; at BACE1 it was 100 to 500 nM.

In the case of `Cc1cccc(C(=O)Nc2ccccc2)c1-c1ccc2nc(N)c(N3CCOCC3)cc2c1` [Example 127, 2-(2-amino-3-morpholinoquinolin-6-yl)-3-methyl-N-phenylbenzamide], the figures for the IC50 (in experiment [1]; at BACE1) were above 5000 nM and 1010 to 5000 nM, respectively.

Regarding `COc1cccnc1C(=O)c1cccc(C)c1-c1ccc2nc(N)c(N3CCOCC3)cc2c1` [Example 187, (2-(2-amino-3-morpholinoquinolin-6-yl)-3-methylphenyl)(3-methoxypyridin-2-yl)methanone], the concentration for half-maximal inhibition (IC50) in experiment [1] is 100 to 500 nM; on BACE1, below 100 nM.

Regarding `Cc1cccc(C(=O)N2CCOC(C)(C)C2)c1-c1ccc2nc(N)c(N3CCOCC3)cc2c1` [Example 43, (2-(2-amino-3-morpholinoquinolin-6-yl)-3-methylphenyl)(2,2-dimethylmorpholino)methanone], the figures for the half-maximal inhibitory concentration (IC50) (in experiment [1]; at BACE1) were 1010 to 5000 nM and 100 to 500 nM, respectively.

`COCCC1CCCCN1C(=O)c1cccc(C)c1-c1ccc2nc(N)c(N3CCOCC3)cc2c1` (centres unmarked) [Example 83, (2-(2-amino-3-morpholinoquinolin-6-yl)-3-methylphenyl)(2-(2-methoxyethyl)piperidin-1-yl)methanone]: the IC50 in experiment [1] is 1010 to 5000 nM; at BACE1, 100 to 500 nM.

In the case of `CCCC1CCCN1C(=O)c1cccc(C)c1-c1ccc2nc(N)c(N3CCOCC3)cc2c1` (centres unmarked) [Example 63, (2-(2-amino-3-morpholinoquinolin-6-yl)-3-methylphenyl)(2-propylpyrrolidin-1-yl)methanone], the figures for the IC50 (in experiment [1]; on BACE1) were 1010 to 5000 nM and 100 to 500 nM, respectively.

In the case of `Cc1cccc(C(=O)N2CCCC2C)c1-c1ccc2nc(N)c(N3CCOCC3)cc2c1` (centres unmarked) [Example 67, (2-(2-amino-3-morpholinoquinolin-6-yl)-3-methylphenyl)(2-methylpyrrolidin-1-yl)methanone], the values for the half-inhibitory concentration (IC50) (in experiment [1]; on BACE1) were 100 to 500 nM and below 100 nM, respectively.

Turning to `Cc1cccc(C(=O)C2CCCC2)c1-c1ccc2nc(N)c(N3CCOCC3)cc2c1` [Example 184, (2-(2-amino-3-morpholinoquinolin-6-yl)-3-methylphenyl)(cyclopentyl)methanone], the IC50 in experiment [1] is 501 to 1000 nM; at BACE1, below 100 nM.

For `Cc1cccc(C(N)c2ncccc2Cl)c1-c1ccc2nc(N)c(N3CCOCC3)cc2c1` (centres unmarked) [Example 197, 6-(2-(amino(3-chloropyridin-2-yl)methyl)-6-methylphenyl)-3-morpholinoquinolin-2-amine], the IC50 (in experiment [1]; at BACE1) was 100 to 500 nM throughout.

Turning to `Cc1cccc(C(=O)c2ccc(Cl)cc2)c1-c1ccc2nc(N)c(N3CCOCC3)cc2c1` [Example 176, (2-(2-amino-3-morpholinoquinolin-6-yl)-3-methylphenyl)(4-chlorophenyl)methanone], the half-inhibitory concentration (IC50) in experiment [1] was 1010 to 5000 nM; on BACE1, below 100 nM.

Take `Nc1nc2ccc(-c3ccccc3C(=O)C3CCOCC3)cc2cc1N1CCOCC1` [Example 11, (2-(2-amino-3-morpholinoquinolin-6-yl)phenyl)(tetrahydro-2H-pyran-4-yl)methanone]: the 50% inhibitory concentration (IC50) was in the range of 1010 to 5000 nM in experiment [1] and 100 to 500 nM on BACE1.

Turning to `Cc1cccc(C(=O)N(C)CCc2ccccc2)c1-c1ccc2nc(N)c(N3CCOCC3)cc2c1` [Example 137, 2-(2-amino-3-morpholinoquinolin-6-yl)-N,3-dimethyl-N-phenethylbenzamide], the IC50 in experiment [1] lay in the range of 1010 to 5000 nM; at BACE1 it was 100 to 500 nM.
